In publication PMC5433098, “Intrinsic Toxin-Derived Peptides Destabilize and Inactivate Clostridium difficile TcdB” (mBio, 2017):

Tests used:
[1] = test system: TcdB; assay: In vitro autoprocessing assay with IP6; format: biochemical, Clostridium difficile; conditions: 37 pM TcdB, 500 µM IP6, 1 h 37°C, 50 µM peptide, n = 4
Description: TcdB autoprocessing was activated by incubating 37 pM TcdB with 500 µM inositol hexakisphosphate (IP6) for 1 h at 37°C in a buffer consisting of 50 mM HEPES (pH 7.5), 150 mM NaCl, and 20 mM dithiothreitol (DTT). After the reaction was stopped by heating the samples at 95°C for 7 min in SDS-PAGE sample buffer, cleavage of TcdB was evaluated by an immunoblot assay probing with antibodies to the amino-terminal domain of TcdB (R&D Systems; catalog no. AF6246).

[2] = test system: TcdB2Δ1853–2366; assay: Surface plasmon resonance (SPR); format: binding, Clostridium difficile; conditions: 40 µM PepB2, 20 μl/min, 25°C
Description: (§1) Surface plasmon resonance (SPR) analysis was performed using a Biacore 3000 instrument (OMRF Biacore Core Facility). TcdB2, TcdB2Δ1853–2366, TcdB2_1851–2366, or BSA was captured on a CM5 sensor chip via amine coupling chemistry based on EDC/N-hydroxysuccinimide (NHS) activation of the carboxymethyl groups of the sensor chip surface. For TcdB2 conjugation, 1 μM TcdB2 or TcdB2Δ1853–2366 was injected at a flow rate of 10 μl/min. TcdB2_1851–2366 was injected at a concentration of 2.5 μM with a flow rate of 10 μl/min. After protein conjugation, ethanolamine was passed over the sensor chip to deactivate unreacted NHS esters. The running buffer used for the binding experiments consisted of 25 mM HEPES (pH 7.4), 150 mM NaCl, and 0.01% Tween 20, and the chip regeneration buffer consisted of 50 mM NaOH and 1 M NaCl.

[3] = test system: TcdB2; assay: Surface plasmon resonance (SPR); format: binding, Clostridium difficile
Description: as §1

[4] = test system: TcdB; assay: Dialysis (50-kDa cutoff) followed by cytotoxicity assay in CHO-K1 cells; format: cell-based, Clostridium difficile; conditions: for TcdB-inhibitory activity retained after dialysis: 125 μM inhibitor in serum-free F-12–K, 50-kDa-cutoff membrane into PBS, about 62.5 μM tested, CHO-K1, 24 h, 0.4 pM TcdB, n = 3
Description: (§2) In cytotoxicity assays, CHO-K1 cells were seeded in 96-well plates at a density of 1.0 × 10^4 cells/well and allowed to attach overnight. Cells were incubated with toxin or toxin plus peptide for 24 h, and then cell viability was quantified by the cell counting kit 8 (CCK-8) assay (Sigma), a WST-8 dye-based colorimetric reaction.
Inhibitors were diluted to 125 μM in F-12–K medium lacking FBS. Then, 1 ml of the diluted inhibitor was dialyzed with a 50-kDa-cutoff membrane into 2 liters of PBS while stirring. After 3 h, the PBS was discarded and replaced with an additional 1.5 liters of PBS. After 2 more hours of stirring dialysis, the inhibitors were removed from the dialysis tube and diluted into F-12–K medium containing 20% FBS. This produced an inhibitor concentration of approximately 62.5 μM that was then tested for TcdB inhibition using a cytotoxicity assay described above. As controls, a portion of the diluted inhibitors were subjected to mock dialysis conditions and also tested in a cytotoxicity assay.

[5] = test system: TcdB1; assay: Cytotoxicity assay in CHO-K1 cells (CCK-8); format: cell-based, Clostridium difficile; conditions: 24 h, 50 µM peptide, n = 3
Description: as §2

[6] = test system: TcdB2; assay: Cytotoxicity assay in CHO-K1 cells (CCK-8); format: cell-based, Clostridium difficile; conditions: 24 h, 50 µM peptide, n = 3
Description: as §2

[7] = test system: TcdA; assay: Cytotoxicity assay in CHO-K1 cells; format: cell-based, Clostridium difficile; conditions: 24 h, 50 µM peptide, n = 3
Description: as §2

[8] = test system: TcdB2Δ1853–2366; assay: Cytotoxicity assay in CHO-K1 cells; format: cell-based, Clostridium difficile; conditions: 24 h, n = 3
Description: as §2

[9] = test system: TcdB1; assay: Transepithelial electrical resistance (TER) in T84 cells; conditions: polarized T84 cells, 40 pM TcdB1, 50 µM peptide, n = 4
[10] = test system: TcdB; assay: In vitro Rac1 glucosylation assay; format: biochemical, Clostridium difficile; conditions: TcdB 1.2-24 nM, 400 nM GST-Rac1, 40 μM UDP-glucose, 37°C 1 h, 50 µM peptide, n = 3
Description: (§3) To determine how PepB2 influences the glucosylation activity of TcdB, 400 nM purified GST-Rac1 and 40 μM UDP-glucose were combined with a range of concentrations of TcdB (1.2 nM to 24 nM) or GTD (0.5 nM to 25 nM). These reactions were performed in 20 μl of buffer consisting of 50 mM HEPES (pH 7.5), 100 mM KCl, 2 mM MgCl2, 1 mM MnCl2, and 100 μg/ml BSA. The reactions were carried out at 37°C for 1 h and were stopped by heating the samples at 95°C for 7 min in sample buffer (62.5 mM Tris-HCl [pH 6.8], 2% SDS, 10% glycerol, 5% β-mercaptoethanol, and 0.001% bromphenol blue). An immunoblotting assay was then performed by probing with a mouse monoclonal antibody to total Rac1 (EMD Millipore; catalog no. 05-389) or a mouse monoclonal antibody recognizing nonglucosylated Rac1 (BD Bioscience; catalog no. 610651).

[11] = test system: purified recombinant GTD (TcdB aa 1 to 543); assay: In vitro Rac1 glucosylation assay; format: biochemical, Clostridium difficile; conditions: GTD 0.5-25 nM, 50 µM peptide, n = 2
Description: as §3

[12] = test system: TcdB; assay: TcdB associating with CHO-K1 cells (immunoblot); format: cell-based, Clostridium difficile; conditions: 37°C, 4 nM TcdB, 50 µM peptide
Description: CHO-K1 cells were cultured as described above and were seeded the day before the experiment in 12-well plates at a density of 1.0 × 10^5 cells/well. These cells were then exposed for 10 min or 30 min at 37°C to 4 nM of TcdB in the presence and absence of peptide. After this exposure, the cells were then washed twice with 1 ml of complete medium, and then total proteins were extracted by adding cold lysis buffer (1% SDS, 50 mM Tris-HCl [pH 7.4], 5 mM EDTA, and a protease inhibitor mixture). For each condition, equal amounts of total protein were analyzed by immunoblot probing with antibodies to the amino-terminal domain of TcdB (R&D Systems; catalog no. AF6246) or an antibody to glyceraldehyde-3-phosphate dehydrogenase (GAPDH) (Abcam; catalog no. AB8245).

[13] = test system: bovine serum albumin (BSA); assay: Surface plasmon resonance (SPR), reference channel; format: binding
Description: as §1

[14] = Oligomerization by BS3 cross-linking and SDS-PAGE; format: physicochemical; conditions: 1.4 mM peptide, 5 mM BS3, 25 mM HEPES pH 7.4, 150 mM NaCl, 30 min 25°C; 4 to 20% SDS-PAGE, Coomassie
Description: Peptides were cross-linked using bis(sulfosuccinimidyl)suberate (BS^3), which is a water-soluble homobifunctional cross-linking agent that reacts with primary amine groups. The cross-linking reaction was performed with 1.4 mM peptide and 5 mM BS^3 in a buffer consisting of 25 mM HEPES (pH 7.4) and 150 mM NaCl. The reaction proceeded for 30 min at 25°C and then was quenched with 100 mM Tris, pH 8.0.

[15] = test system: TcdB; assay: Intracellular Rac1 glucosylation in CHO-K1 cells (immunoblot); format: cell-based, Clostridium difficile; conditions: TcdB 0.037-3.7 pM, 25 h, 50 µM peptide
Description: CHO-K1 cells were cultured as described above and were seeded the day before the experiment in 24-well plates at a density of 5.0 × 10^4 cells/well. TcdB was then combined with peptide in complete culture medium and added to cells. Following this exposure, total proteins were extracted by removing culture medium and adding cold lysis buffer (1% SDS, 50 mM Tris-HCl [pH 7.4], 5 mM EDTA, and a protease inhibitor mixture). For each condition, equal amounts of total protein were analyzed by immunoblot probing with a mouse monoclonal antibody to total Rac1 (EMD Millipore; catalog no. 05-389) or a mouse monoclonal antibody recognizing nonglucosylated Rac1 (BD Bioscience; catalog no. 610651).

[16] = test system: Bacillus anthracis lethal toxin (LT)

Molecule: CC[C@H](C)[C@H](NC(=O)[C@H](CCCCN)NC(=O)[C@H](CC(=O)O)NC(=O)[C@H](CO)NC(=O)[C@@H](NC(=O)[C@@H](NC(=O)[C@H](CC(N)=O)NC(=O)CNC(=O)[C@H](CCCCN)NC(=O)[C@H](Cc1ccccc1)NC(=O)[C@@H](NC(=O)[C@@H](N)CC(N)=O)C(C)C)[C@@H](C)O)[C@@H](C)CC)C(=O)N[C@@H](CO)C(=O)N[C@@H](Cc1ccccc1)C(=O)N[C@@H](CC(N)=O)C(=O)N[C@@H](Cc1ccccc1)C(=O)N[C@@H](CO)C(=O)N[C@@H](CC(=O)O)C(=O)N[C@@H](CCCCN)C(=O)O [PepB2]
- effect on IP6-induced TcdB autoproteolysis [1]: enhanced the efficiency of IP6-induced TcdB autoproteolysis
- binding to TcdB2Δ1853–2366 compared with equal moles of TcdB2 [2]: much higher levels of PepB2 bound TcdB2 than TcdB2Δ1853–2366
- binding to sensor chip-immobilized TcdB ([3]; SPR, Biacore 3000, CM5 chip, 5 μl/min, 25°C, BSA reference subtracted): binds TcdB
- number of peptide molecules bound per single molecule of TcdB ([3]; calculated from change in response units on immobilized TcdB): approximately 250 molecules
- TcdB-inhibitory activity retained after dialysis [4]: TcdB-inhibitory activity was not removed
- size of inhibitory oligomer ([4]; retained by 50-kDa-cutoff dialysis membrane): > 50 kDa
- increase of the 50% toxic concentration (TC50) of TcdB1 ([5]; range of toxin concentrations): 500 fold
- increase of the 50% toxic concentration (TC50) of TcdB2 ([6]; range of toxin concentrations): 200 fold
- inhibition of TcdA cytotoxicity [7]: did not block cytotoxicity
- decrease in sensitivity of TcdB2Δ1853–2366 to peptide relative to full-length TcdB2 [8]: 10 fold
- effect on TcdB-mediated disruption of transepithelial resistance [9]: prevented TcdB-mediated disruption of transepithelial resistance
- effect on in vitro glucosylation of Rac1 by TcdB [10]: did not suppress the in vitro glucosylation of Rac1 by TcdB but instead appeared to increase enzymatic activity
- effect on glucosyltransferase activity of purified recombinant GTD [11]: no effect on the glucosyltransferase activity
- TcdB association with cells, 10 min ([12]; 10 min, n = 4): significantly reduced
- TcdB association with cells, 30 min ([12]; 30 min): not reduced
- TcdB proteolytic cleavage on cells, 30 min ([12]; 30 min): causes TcdB to become susceptible to proteolytic cleavage
- binding to BSA-coated reference channel [13]: did not bind
- oligomerization after BS3 cross-linking [14]: unable to migrate by SDS-PAGE
- effect on Rac1 glucosylation by TcdB in treated cells [15]: prevented Rac1 glucosylation by TcdB in treated cells
- inhibition of Bacillus anthracis lethal toxin cytotoxicity [16]: did not block cytotoxicity

Molecule: COC(=O)CC[C@@H](C)[C@H]1CC[C@H]2[C@@H]3[C@H](O)C[C@@H]4C[C@H](O)CC[C@]4(C)[C@H]3C[C@H](O)[C@]12C [methyl cholate, reference compound]
- TcdB-inhibitory activity retained after dialysis [4]: toxin-inhibitory activity was lost

Molecule: PepB1: peptide based on the 1769-to-1787 region of TcdB1 (NVFKDKTLANKLSFNFSDK; UniProt P18177 1769-1787, looked up, fragment)
- inhibition of TcdB1 cytotoxicity [5]: did not inhibit the cytotoxicity
- inhibition of TcdB2 cytotoxicity [6]: did not inhibit the cytotoxicity
- oligomerization after BS3 cross-linking [14]: migrated into the gel in a similar pattern as uncross-linked control peptides
